Where two headings read alike, the source gives them in different places. Square brackets hold non-standard residues; d marks the D form. Peptide text beside a SMILES is read from it.
Columns and labels:
[1] = system: Candida albicans clinical strains; test: MIC, clinical yeast strains; format: cell-based; parameters: unit: μg/ml
In short: (§1)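 MIC recorded as the lowest peptide level, within 0.125–128 μg/ml, that left no visible growth after 20–24 h at 37° C. Inoculum was 5.0×10^5 cfu/ml of clinical isolates. Medium was potato dextrose broth for yeasts and Mueller Hinton broth for bacteria, in a broth microdilution format.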

[2] = system: C. parapsilosis clinical strains; test: MIC, clinical yeast strains; format: cell-based, Candida parapsilosis; parameters: unit: µg/ml
In short: as §1

[3] = system: Serratia marcescens clinical strains; format: cell-based; parameters: Minimum inhibitory concentration: unit: μg/ml; details: microdilution, Muller Hinton broth-cation adjusted, 0.02% BSA, 0.2% acetic acid
In short: as §1

[4] = system: Streptococcus pneumoniae clinical strains; format: cell-based; parameters: Minimum inhibitory concentration: unit: μg/ml; details: microdilution, Muller Hinton broth-cation adjusted, 0.02% BSA, 0.2% acetic acid
In short: as §1

[5] = system: Staphylococcus aureus clinical strains; format: cell-based; parameters: Minimum inhibitory concentration: unit: μg/ml; details: microdilution, Muller Hinton broth-cation adjusted, 0.02% BSA, 0.2% acetic acid
In short: as §1

[6] = system: Proteus mirabilis clinical strains; format: cell-based; parameters: Minimum inhibitory concentration: unit: μg/ml; details: microdilution, Muller Hinton broth-cation adjusted, 0.02% BSA, 0.2% acetic acid
In short: as §1

[7] = system: Enterobacter cloacae clinical strains; format: cell-based; parameters: Minimum inhibitory concentration: unit: μg/ml; details: microdilution, Muller Hinton broth-cation adjusted, 0.02% BSA, 0.2% acetic acid
In short: as §1

[8] = system: C. glabrata clinical strains; test: MIC, clinical yeast strains; format: cell-based, Candida glabrata; parameters: unit: µg/ml
In short: as §1

[9] = system: C. quillermondiae clinical strains; test: MIC, clinical yeast strains; format: cell-based, Candida quillermondiae; parameters: unit: μg/ml; details: C. quillermondiae clinical yeast strain 1
In short: as §1

[10] = system: Pseudomonas aeruginosa clinical strains; format: cell-based; details: microdilution, Muller Hinton broth-cation adjusted, 0.02% BSA, 0.2% acetic acid
In short: as §1

[11] = system: Klebsiella pneumoniae clinical strains; format: cell-based; details: microdilution, Muller Hinton broth-cation adjusted, 0.02% BSA, 0.2% acetic acid
In short: as §1

[12] = system: Escherichia coli clinical strains; format: cell-based; details: microdilution, Muller Hinton broth-cation adjusted, 0.02% BSA, 0.2% acetic acid
In short: as §1

[13] = Candida albicans clinical yeast strain 1
[14] = Candida albicans clinical yeast strain 2
[15] = Candida albicans clinical yeast strain 3
[16] = Candida albicans clinical yeast strain 4
[17] = Candida albicans clinical yeast strain 5
[18] = C. parapsilosis clinical yeast strain 1
[19] = C. parapsilosis clinical yeast strain 2
[20] = C. parapsilosis clinical yeast strain 3
[21] = C. parapsilosis clinical yeast strain 4
[22] = Serratia marcescens clinical strain 1
[23] = Serratia marcescens clinical strain 2
[24] = Serratia marcescens clinical strain 3
[25] = Serratia marcescens clinical strain 4
[26] = Serratia marcescens clinical strain 5
[27] = Streptococcus pneumoniae clinical strain 1
[28] = Streptococcus pneumoniae clinical strain 2
[29] = Streptococcus pneumoniae clinical strain 3
[30] = Streptococcus pneumoniae clinical strain 4
[31] = Streptococcus pneumoniae clinical strain 5
[32] = Staphylococcus aureus clinical strain 1
[33] = Staphylococcus aureus clinical strain 2
[34] = Staphylococcus aureus clinical strain 3
[35] = Staphylococcus aureus clinical strain 4
[36] = Staphylococcus aureus clinical strain 5
[37] = Proteus mirabilis clinical strain 1
[38] = Proteus mirabilis clinical strain 2
[39] = Proteus mirabilis clinical strain 3
[40] = Proteus mirabilis clinical strain 4
[41] = Proteus mirabilis clinical strain 5
[42] = Enterobacter cloacae clinical strain 1
[43] = Enterobacter cloacae clinical strain 2
[44] = Enterobacter cloacae clinical strain 3
[45] = Enterobacter cloacae clinical strain 4
[46] = Enterobacter cloacae clinical strain 5
[47] = C. glabrata clinical yeast strain 1
[48] = C. glabrata clinical yeast strain 2
[49] = C. glabrata clinical yeast strain 3
[50] = C. glabrata clinical yeast strain 4
[51] = Pseudomonas aeruginosa clinical strain 1
[52] = Pseudomonas aeruginosa clinical strain 2
[53] = Pseudomonas aeruginosa clinical strain 3
[54] = Pseudomonas aeruginosa clinical strain 4
[55] = Pseudomonas aeruginosa clinical strain 5
[56] = Klebsiella pneumoniae clinical strain 1
[57] = Klebsiella pneumoniae clinical strain 2
[58] = Klebsiella pneumoniae clinical strain 3
[59] = Klebsiella pneumoniae clinical strain 4
[60] = Klebsiella pneumoniae clinical strain 5
[61] = Escherichia coli clinical strain 1
[62] = Escherichia coli clinical strain 2
[63] = Escherichia coli clinical strain 3
[64] = Escherichia coli clinical strain 4
[65] = Escherichia coli clinical strain 5

`CC(C)C[C@@H](NC(=O)[C@@H](Cc1c[nH]c2ccccc12)NC(=O)[C@@H](Cc1ccccc1)NC(=O)[C@@H](Cc1c[nH]c2ccccc12)NC(=O)[C@@H](CCCCN)NC(=O)[C@@H](CCCNC(=N)N)NC(=O)[C@H](N)Cc1c[nH]c2ccccc12)C(=O)N[C@H](Cc1ccccc1)C(=O)N[C@H](CCCCN)C(=O)N[C@H](CCCCN)C(=O)N[C@H](CCCNC(=N)N)C(=O)O` [Chain309D] (H-[dW][dR][dK][dW][dF][dW][dL][dF][dK][dK][dR]-OH) showed a Minimum inhibitory concentration [1, 13] of 32, a Minimum inhibitory concentration [1, 14] of 32 and a Minimum inhibitory concentration [1, 15] of 16. It also gave a Minimum inhibitory concentration [1, 16] of 16, a Minimum inhibitory concentration [1, 17] of 32 and a Minimum inhibitory concentration [2, 18] of 64. For the same compound, the Minimum inhibitory concentration [2, 19] was 64, the Minimum inhibitory concentration [2, 20] was 32 and the Minimum inhibitory concentration [2, 21] was 16. The Minimum inhibitory concentration [3, 22] was greater than 128, the Minimum inhibitory concentration [3, 23] was greater than 128 and the Minimum inhibitory concentration [3, 24] was greater than 128. It also gave a Minimum inhibitory concentration [3, 25] greater than 128, a Minimum inhibitory concentration [3, 26] greater than 128 and a Minimum inhibitory concentration [4, 27] of 64. For the same compound, the Minimum inhibitory concentration [4, 28] was 64, the Minimum inhibitory concentration [4, 29] was 64 and the Minimum inhibitory concentration [4, 30] was 64. It also gave a Minimum inhibitory concentration [4, 31] of 64, a Minimum inhibitory concentration [5, 32] of 8 and a Minimum inhibitory concentration [5, 33] of 16. For the same compound, the Minimum inhibitory concentration [5, 34] was 8, the Minimum inhibitory concentration [5, 35] was 8 and the Minimum inhibitory concentration [5, 36] was 8. The Minimum inhibitory concentration [6, 37] was greater than 128, the Minimum inhibitory concentration [6, 38] was greater than 128 and the Minimum inhibitory concentration [6, 39] was greater than 128. It also gave a Minimum inhibitory concentration [6, 40] greater than 128, a Minimum inhibitory concentration [6, 41] greater than 128 and a Minimum inhibitory concentration [7, 42] greater than 128. For the same compound, the Minimum inhibitory concentration [7, 43] was 128, the Minimum inhibitory concentration [7, 44] was 64 and the Minimum inhibitory concentration [7, 45] was 64. It also gave a Minimum inhibitory concentration [7, 46] of 32, a Minimum inhibitory concentration [8, 47] of 32 and a Minimum inhibitory concentration [8, 48] of 64. It also gave a Minimum inhibitory concentration [8, 49] of 4, a Minimum inhibitory concentration [8, 50] of 128 and a Minimum inhibitory concentration [9] of 8. It also gave a Minimum inhibitory concentration [10, 51] of 16, a Minimum inhibitory concentration [10, 52] of 32 and a Minimum inhibitory concentration [10, 53] of 16. It also gave a Minimum inhibitory concentration [10, 54] of 32, a Minimum inhibitory concentration [10, 55] of 8 and a Minimum inhibitory concentration [11, 56] of 128. It also gave a Minimum inhibitory concentration [11, 57] of 32, a Minimum inhibitory concentration [11, 58] greater than 128 and a Minimum inhibitory concentration [11, 59] of 32. The Minimum inhibitory concentration [11, 60] was 128, the Minimum inhibitory concentration [12, 61] was 0.5 and the Minimum inhibitory concentration [12, 62] was 32. For the same compound, the Minimum inhibitory concentration [12, 63] was 16, the Minimum inhibitory concentration [12, 64] was 32 and the Minimum inhibitory concentration [12, 65] was 16.
In the case of `CC(C)C[C@@H](NC(=O)[C@@H](CCCCN)NC(=O)[C@@H](CCCCN)NC(=O)[C@@H](Cc1ccccc1)NC(=O)[C@@H](CC(C)C)NC(=O)[C@@H](Cc1c[nH]c2ccccc12)NC(=O)[C@@H](CCCNC(=N)N)NC(=O)[C@@H](Cc1c[nH]c2ccccc12)NC(=O)[C@@H](CCCCN)NC(=O)[C@@H](CCCNC(=N)N)NC(=O)[C@H](N)CCCCN)C(=O)O` [Chain310D] (H-[dK][dR][dK][dW][dR][dW][dL][dF][dK][dK][dL]-OH), the Minimum inhibitory concentration [1, 13] is reported as 16, the Minimum inhibitory concentration [1, 14] is reported as 16 and the Minimum inhibitory concentration [1, 15] is reported as 16. The Minimum inhibitory concentration [1, 16] was 16, the Minimum inhibitory concentration [1, 17] was 16 and the Minimum inhibitory concentration [2, 18] was 64. It also gave a Minimum inhibitory concentration [2, 19] of 64, a Minimum inhibitory concentration [2, 20] of 64 and a Minimum inhibitory concentration [2, 21] of 16. For the same compound, the Minimum inhibitory concentration [3, 22] was greater than 128, the Minimum inhibitory concentration [3, 23] was greater than 128 and the Minimum inhibitory concentration [3, 24] was greater than 128. It also gave a Minimum inhibitory concentration [3, 25] greater than 128, a Minimum inhibitory concentration [3, 26] greater than 128 and a Minimum inhibitory concentration [4, 27] of 128. It also gave a Minimum inhibitory concentration [4, 28] of 128, a Minimum inhibitory concentration [4, 29] of 128 and a Minimum inhibitory concentration [4, 30] of 128. For the same compound, the Minimum inhibitory concentration [4, 31] was 64, the Minimum inhibitory concentration [5, 32] was 8 and the Minimum inhibitory concentration [5, 33] was 16. It also gave a Minimum inhibitory concentration [5, 34] of 8, a Minimum inhibitory concentration [5, 35] of 8 and a Minimum inhibitory concentration [5, 36] of 4. It also gave a Minimum inhibitory concentration [6, 37] greater than 128, a Minimum inhibitory concentration [6, 38] greater than 128 and a Minimum inhibitory concentration [6, 39] greater than 128. The Minimum inhibitory concentration [6, 40] was greater than 128, the Minimum inhibitory concentration [6, 41] was greater than 128 and the Minimum inhibitory concentration [7, 42] was 128. The Minimum inhibitory concentration [7, 43] was 64, the Minimum inhibitory concentration [7, 44] was 16 and the Minimum inhibitory concentration [7, 45] was 8. It also gave a Minimum inhibitory concentration [7, 46] of 16, a Minimum inhibitory concentration [8, 47] of 16 and a Minimum inhibitory concentration [8, 48] of 16. It also gave a Minimum inhibitory concentration [8, 49] of 128, a Minimum inhibitory concentration [8, 50] of 128 and a Minimum inhibitory concentration [9] of 8. For the same compound, the Minimum inhibitory concentration [10, 51] was 8, the Minimum inhibitory concentration [10, 52] was 16 and the Minimum inhibitory concentration [10, 53] was 16. The Minimum inhibitory concentration [10, 54] was 8, the Minimum inhibitory concentration [10, 55] was 4 and the Minimum inhibitory concentration [11, 56] was 64. It also gave a Minimum inhibitory concentration [11, 57] of 64, a Minimum inhibitory concentration [11, 58] of 128 and a Minimum inhibitory concentration [11, 59] of 64. It also gave a Minimum inhibitory concentration [11, 60] of 32, a Minimum inhibitory concentration [12, 61] of 4 and a Minimum inhibitory concentration [12, 62] of 32. The Minimum inhibitory concentration [12, 63] was 16, the Minimum inhibitory concentration [12, 64] was 16 and the Minimum inhibitory concentration [12, 65] was 16.
